{
  "source": "patent US9931335B2",
  "about": "“Desethylhydroxychloroquine for the treatment of diseases associated with inflammation” (The Board of Trustees of the Leland Stanford Junior …, priority 2013, dated 2018)",
  "key": {"ARPE-19 cells": {"tested_on": "ARPE-19 cells", "protocol": "The major serious risk to long term administration of hydroxychloroquine is retinal accumulation and subsequent ocular toxicity (Terahi et al, 2008. Semin Opthal. (3):201-208. PMID). The ocular deposition of HCQ, DHCQ, and BDCQ was evaluated by direct retinal cellular toxicity by incubating equivalent concentrations of these molecules with the retinal pigmented epithelial cell line ARPE-19. ARPE-19 is a human retinal pigment epithelial cell line with differentiated properties (Dunn et al., Exp Eye Res. 1996 62(2):155-69). ARPE-19 cells were grown to 90% confluence, and then exposed to 10 µg/ml of HCQ, DHCQ, BDCQ, or vehicle control for 24 hours, following which microscopic analysis and photomicroscopy was performed at 40× power.\nAs described above, ARPE-19 cells were grown to 90% confluence then exposed to 10 μg/ml HCQ, DHCQ, BDCQ, or vehicle control for 24 hours followed by quantitation of cell death by lactate dehydrogenase (LDH) release assay (Abcam)."}, "[1]": {"tested_on": "high-fat diet-induced NASH in C57BL/6 mice", "assay": "High fat diet-induced NAFLD/NASH in mice, prevention", "format": "in vivo, mouse", "conditions": "for liver score (NASH histology): 100 mg/kg/day from start of high-fat diet, vs vehicle (DHCQ P<0.001, HCQ P<0.05)", "protocol": "To evaluate the effect of DHCQ and HCQ on an animal model of non-alcoholic fatty liver disease (NAFLD) which can lead to the development of NASH, C57BL/6 mice (8 per group) were fed a high-fat “western-style” diet (60% caloric content from fat; Taconic) for 6 weeks. The mice were asymptomatic throughout this time, but were developing a pre- or early-disease state. The mice were treated, starting at the time of initiation of the high-fat diet, with HCQ (100 mg/kg/day), DHCQ (100 mg/kg/day), or vehicle control, to prevent the development of NAFLD and NASH. After 6 weeks of treatment with DHCQ, HCQ and vehicle (control) while on a high-fat diet, blood was collected and mice sacrificed for histological analysis of liver pathology. Livers from the mice in each treatment group were fixed, embedded, sectioned, stained with H&E, representative micrographs are presented in FIG. 7A (both 10× and 20× magnification), “liver scores” determined using an established scoring system for NASH (Brunt et al, Nonalcoholic steatohepatitis: a proposal for grading and staging the histological lesions, American J. Gastroenterology, 1999, 94(9):2467-74)."}, "[2]": {"tested_on": "diet-induced obesity in C57BL/6 mice", "assay": "Mouse diet-induced obesity: type II diabetes, hyperlipidemia and metabolic syndrome", "format": "in vivo", "conditions": "10 mg/kg/day, 6 weeks; for total cholesterol / triglycerides / blood glucose: vs vehicle; for blood glucose: two-tailed T test", "protocol": "To evaluate treatment with DHCQ and HCQ on a mouse model of diet-induced type II diabetes, hyperlipidemia and metabolic syndrome, C57BL/6 mice (8 per group) were fed a high-fat “western-style” diet (60% caloric content from fat; Taconic). In an analogous fashion to that in Example 6, two weeks following initiation of the high-fat diet groups of mice were initiated on treatment with vehicle control, HCQ (10 mg/kg/day) or the HCQ metabolites DHCQ (10 mg/kg/day), DCQ (10 mg/kg/day), or BDCQ (10 mg/kg/day). After 6 weeks of treatment, blood was collected for analysis of glucose, triglyceride, and cholesterol levels."}, "[3]": {"tested_on": "inflammatory cytokines in mouse OA synovium", "assay": "Multiplex cytokine assay of OA synovial tissue from treated DMM mice", "format": "in vivo", "conditions": "for levels of inflammatory cytokines in OA synovium vs vehicle control: heat map, multiplex bead assay", "text": "From a parallel experiment to the mouse OA experiment presented in Example 12 and FIG. 19, following in vivo dosing and at the time of termination OA synovial tissue was microdissected, homogenized to form a lysate, centrifuged, and supernatants assayed for levels of inflammatory cytokines using a multiplex bead-based cytokine assay (BioRad Laboratories, Hercules, Calif.)."}, "[4]": {"tested_on": "experimental autoimmune encephalomyelitis (EAE) in SJL mice", "assay": "EAE mouse model for MS, prevention (treatment from immunization)", "format": "in vivo", "conditions": "for EAE clinical score (development and severity): 100 mg/kg/day oral gavage from immunization, 50 mg/kg/day from day 8, vs vehicle or BDCQ, P<0.05", "text": "Experimental autoimmune encephalomyelitis (EAE), a mouse model for MS, was induced in SJL mice (n=10 per group) by immunization with proteolipid protein peptide 139-151 (PLP 139-151) in CFA. […] Starting on day 8, mice were scored daily for the severity of EAE."}, "[5]": {"tested_on": "TNF production by human peripheral blood mononuclear cells (PBMCs)", "assay": "LPS-stimulated TNF production by human PBMCs (ELISA)", "format": "cell-based", "conditions": "LPS 10 μg/ml, 10, 25 and 50 μM compound, 14 hours; vs LPS alone", "protocol": "DHCQ reduced the production of the pro-inflammatory cytokine tumor necrosis factor (TNF) by human peripheral blood mononuclear cells (PBMCs) in response to pro-inflammatory lipopolysaccharide (LPS) stimulation (FIG. 10). Human PBMCs were isolated using Ficoll, 200,000 PBMCs were added to each well of a 96-well plate, and stimulated with LPS 10 μg/ml in the presence of a range of concentrations from 0 to 50 μM DHCQ, or 0 to 50 μM HCQ, for 14 hours, following which culture supernatants were collected and TNF measured by ELISA. Assays were run in triplicate.\nIsolation of human PBMCs and monocytes. The Ficoll-Paque™ Plus (Cat; 17-1440-03GE Healthcare) was used to isolate human peripheral blood mononuclear cells (PBMCs) from blood collected from healthy donors. For cell culture, the isolated PBMCs were resuspended in culture medium (RPM11640) containing 10% FCS and antibiotics (penicillin 100 IU/mL and streptomycin 100 μg/mL). Monocyte Isolation Kit II (Cat; 130-091-153, Miltenyi Biotec) was used to isolate monocytes from the suspension of human PBMCs.\nStimulation assays. […]\nReadout. […] For each assay, a parallel well treated identically was prepared and level of LDH measured to assure no evidence of cell death was induced by drug treatment."}, "[6]": {"conditions": "100 mg/kg/day, 6 weeks, vs vehicle"}},
  "note": "Like-named read-outs stand apart in the source and are kept apart here.",
  "data": [
    {"smiles": "CC(CCCNCCO)Nc1ccnc2cc(Cl)ccc12", "note": "(stereo not shown) [DHCQ, desethylhydroxychloroquine]", "values": [
      {"measurement": "ARPE-19 cellular toxicity by microscopy", "setting": "ARPE-19 cells; human, 24 h, 10 µg/ml", "result": "less ARPE-19 cellular toxicity"},
      {"measurement": "liver score (NASH histology)", "setting": "[1]; 6 weeks", "result": "statistically reduced"},
      {"measurement": "serum ALT", "setting": "[1]; [6]", "result": "prevents and reduces abnormal elevations"},
      {"measurement": "serum AST", "setting": "[1]; [6]", "result": "prevents and reduces abnormal elevations"},
      {"measurement": "liver score, AST and ALT compared to HCQ", "setting": "[1]; P<0.05 two-tailed T test", "result": "statistically superior activity to HCQ"},
      {"measurement": "treatment of diet-induced metabolic disease compared to HCQ, DCQ and BDCQ", "setting": "[2]", "result": "statistically more effectively than HCQ, DCQ and BDCQ"},
      {"measurement": "total cholesterol", "setting": "[2]", "result": "statistical reductions in total cholesterol"},
      {"measurement": "triglycerides", "setting": "[2]", "result": "statistical reductions"},
      {"measurement": "blood glucose", "setting": "[2]", "result": "statistical reduction in blood glucose levels"},
      {"measurement": "cytokines, DHCQ monotherapy vs vehicle control, atorvastatin alone, HCQ+atorvastatin and HCQ alone (SAM)", "setting": "[3]; false discovery rate <0.1%", "result": "reduced the levels of multiple inflammatory cytokines including IL-1b, MCP-1, IFNγ, TNF-alpha IL12p40, and IL-12p70"},
      {"measurement": "levels of inflammatory cytokines in OA synovium vs vehicle control", "setting": "[3]", "result": "lower"},
      {"measurement": "EAE clinical score (development and severity)", "setting": "[4]", "result": "prevented development of and reduced the severity of EAE"},
      {"measurement": "EAE disease activity compared to HCQ treatment", "setting": "[4]; at several timepoints, P<0.05 Mann Whitney U test", "result": "statistically superior activity"},
      {"measurement": "TNF production", "setting": "[5]", "result": "reduced PMBC TNF production"}
    ]},
    {"smiles": "CCN(CCO)CCCC(C)Nc1ccnc2cc(Cl)ccc12", "note": "(stereo not shown) [HCQ, hydroxychloroquine]", "values": [
      {"measurement": "ARPE-19 cellular toxicity by microscopy", "setting": "ARPE-19 cells", "result": "increased cytotoxicity and death"},
      {"measurement": "liver score (NASH histology)", "setting": "[1]; 6 weeks", "result": "statistically reduced"},
      {"measurement": "total cholesterol", "setting": "[2]", "result": "did not result in statistical reductions"},
      {"measurement": "triglycerides", "setting": "[2]", "result": "did not result in statistical reductions"},
      {"measurement": "blood glucose", "setting": "[2]", "result": "did not result in statistical reductions in blood glucose"},
      {"measurement": "levels of inflammatory cytokines in OA synovium vs vehicle control", "setting": "[3]", "result": "lower"},
      {"measurement": "EAE clinical score (development and severity)", "setting": "[4]", "result": "prevented development of and reduced the severity of EAE"},
      {"measurement": "TNF production", "setting": "[5]", "result": "reduced PMBC TNF production"}
    ]}
  ]
}
